According to ChEMBL document CHEMBL5046233, “Nitroxoline and its derivatives are potent inhibitors of metallo-β-lactamases” (Eur J Med Chem, 2022):
Active and inactive are the calls of the source. The rule behind the calls is not given here.

Key:
Bacteria [1] = assay: Inhibition of recombinant VIM-1 (unknown origin) using fluorocillin as substrate at 3 uM incubated for 30 mins by fluorescence based assay
Enterobacter cloacae [2] = assay: Potentiation of imipenem-induced antibacterial activity against Enterobacter cloacae T2353 expressing VIM-1 assessed as fold change in imipenem MIC at 32 mg/L by CLSI protocol based broth microdilution assay; assay type: functional
Enterobacter cloacae [3] = assay: Potentiation of imipenem-induced antibacterial activity against Enterobacter cloacae T2218 expressing GIM-1 assessed as imipenem MIC at 32 mg/L by CLSI protocol based broth microdilution assay; assay type: functional
Klebsiella pneumoniae [4] = assay: Potentiation of imipenem-induced antibacterial activity against Klebsiella pneumoniae T2216 expressing VIM-1 assessed as imipenem MIC at 32 mg/L by CLSI protocol based broth microdilution assay; assay type: functional
Enterobacter cloacae [5] = assay: Potentiation of imipenem-induced antibacterial activity against Enterobacter cloacae T2311 expressing NDM-1 assessed as imipenem MIC at 32 mg/L by CLSI protocol based broth microdilution assay; assay type: functional
Escherichia coli [6] = assay: Bactericidal activity against Escherichia coli T2359 expressing VIM-1 assessed as killing rate at 0.5 XMIC measured after 24 hrs in presence of imipenem by time-kill assay relative to control; assay type: functional
Bacteria [7] = assay: Inhibition of recombinant VIM-1 (unknown origin) using fluorocillin as substrate at 30 uM incubated for 30 mins by fluorescence based assay
Pseudomonas aeruginosa [8] = assay: Potentiation of imipenem-induced antibacterial activity against Pseudomonas aeruginosa T2229 expressing SPM-1 assessed as imipenem MIC at 32 mg/L by CLSI protocol based broth microdilution assay; assay type: functional
[9] = Inhibition of recombinant NDM-1 (unknown origin) using fluorocillin as substrate at 3 uM incubated for 30 mins by fluorescence based assay; conditions: Bacteria
Escherichia coli [10] = assay: Potentiation of imipenem-induced antibacterial activity against Escherichia coli T2544 expressing VIM-1 assessed as fold change in imipenem MIC at 32 mg/L by CLSI protocol based broth microdilution assay; assay type: functional
Bacteria [11] = assay: Inhibition of recombinant IMP-1 (unknown origin) using fluorocillin as substrate at 10 uM incubated for 30 mins by fluorescence based assay
Pseudomonas aeruginosa [12] = assay: Potentiation of imipenem-induced antibacterial activity against Pseudomonas aeruginosa T2357 expressing VIM-1 assessed as imipenem MIC at 32 mg/L by CLSI protocol based broth microdilution assay; assay type: functional
Escherichia coli [13] = assay: Antimicrobial activity against Escherichia coli T2359 expressing VIM-1 assessed as assessed as inhibition of bacterial growth at 0.5XMIC measured after 24 hrs by time-kill assay; assay type: functional, organism-based
Escherichia coli [14] = assay: Antimicrobial activity against Escherichia coli T2359 expressing VIM-1 assessed as inhibition of bacterial growth at 0.5XMIC for 6 hrs by CLSI protocol based broth microdilution assay; assay type: functional, organism-based
Klebsiella pneumoniae [15] = assay: Potentiation of meropenem-induced antibacterial activity against Klebsiella pneumoniae clinical isolate T2301 expressing NDM-1 assessed as meropenem MIC at 32 mg/L by CLSI protocol based broth microdilution assay; assay type: functional
Escherichia coli [16] = assay: Potentiation of imipenem-induced antibacterial activity against Escherichia coli T2433 expressing OXA-48 assessed as fold change in imipenem MIC at 32 mg/L by CLSI protocol based broth microdilution assay; assay type: functional
Escherichia coli [17] = assay: Potentiation of imipenem-induced antibacterial activity against Escherichia coli T2351 expressing NDM-5 assessed as imipenem MIC at 32 mg/L by CLSI protocol based broth microdilution assay; assay type: functional
Klebsiella pneumoniae [18] = assay: Potentiation of imipenem-induced antibacterial activity against Klebsiella pneumoniae clinical isolate T2301 expressing NDM-1 assessed as imipenem MIC at 32 mg/L by CLSI protocol based broth microdilution assay; assay type: functional
Escherichia coli [19] = assay: Potentiation of imipenem-induced antibacterial activity against Escherichia coli clinical isolate T2228 expressing VIM-1 assessed as fold change in imipenem MIC at 32 mg/L by CLSI protocol based broth microdilution assay; assay type: functional
Escherichia coli [20] = assay: Antimicrobial activity against Escherichia coli clinical isolate T2228 expressing VIM-1 assessed as inhibition of bacterial growth by CLSI protocol based broth microdilution assay; assay type: functional
Klebsiella pneumoniae [21] = assay: Potentiation of imipenem-induced antibacterial activity against Klebsiella pneumoniae T2432 expressing KPC-9 assessed as fold change in imipenem MIC at 32 mg/L by CLSI protocol based broth microdilution assay; assay type: functional
Enterobacter cloacae [22] = assay: Potentiation of imipenem-induced antibacterial activity against Enterobacter cloacae T2353 expressing VIM-1 assessed as imipenem MIC at 32 mg/L by CLSI protocol based broth microdilution assay; assay type: functional
Escherichia coli [23] = assay: Potentiation of piperacillin-induced antibacterial activity against Escherichia coli clinical isolate T2228 expressing VIM-1 assessed as piperacillin MIC at 32 mg/L by CLSI protocol based broth microdilution assay; assay type: functional
Citrobacter freundii = assay: Potentiation of imipenem-induced antibacterial activity against Citrobacter freundii T2354 expressing VIM-4 assessed as fold change in imipenem MIC at 32 mg/L by CLSI protocol based broth microdilution assay; assay type: functional
Serratia marcescens = assay: Potentiation of imipenem-induced antibacterial activity against Serratia marcescens T2352 expressing NDM-1 assessed as imipenem MIC at 32 mg/L by CLSI protocol based broth microdilution assay; assay type: functional
Klebsiella pneumoniae [24] = assay: Antimicrobial activity against Klebsiella pneumoniae T2301 expressing NDM-1 assessed as assessed as inhibition of bacterial growth at 0.5XMIC measured after 24 hrs by time-kill assay; assay type: functional, organism-based
Klebsiella pneumoniae [25] = assay: Synergistic antibacterial activity against Klebsiella pneumoniae clinical isolate T2301 expressing NDM-1 assessed as fractional inhibitory concentration index in presence of imipenem by checkerboard assay; assay type: functional
Pseudomonas aeruginosa [26] = assay: Potentiation of imipenem-induced antibacterial activity against Pseudomonas aeruginosa T2282 expressing VIM-2 assessed as fold change in imipenem MIC at 32 mg/L by CLSI protocol based broth microdilution assay; assay type: functional
Escherichia coli [27] = assay: Synergistic antibacterial activity against Escherichia coli clinical isolate T2228 expressing VIM-1 assessed as fractional inhibitory concentration index in presence of imipenem by checkerboard assay; assay type: functional
Klebsiella pneumoniae [28] = assay: Antimicrobial activity against Klebsiella pneumoniae clinical isolate T2301 expressing NDM-1 assessed as inhibition of bacterial growth by CLSI protocol based broth microdilution assay; assay type: functional
Escherichia coli [29] = assay: Potentiation of imipenem-induced antibacterial activity against Escherichia coli T2359 expressing NDM-1 assessed as fold change in imipenem MIC at 32 mg/L by CLSI protocol based broth microdilution assay; assay type: functional
Escherichia coli [30] = assay: Potentiation of ceftazidime-induced antibacterial activity against Escherichia coli clinical isolate T2228 expressing VIM-1 assessed as ceftazidime MIC at 32 mg/L by CLSI protocol based broth microdilution assay; assay type: functional
Escherichia coli [31] = assay: Synergistic antibacterial activity against Escherichia coli T2544 expressing VIM-1 assessed as fractional inhibitory concentration index in presence of imipenem by checkerboard assay; assay type: functional
Pseudomonas aeruginosa [32] = assay: Potentiation of imipenem-induced antibacterial activity against Pseudomonas aeruginosa T2283 expressing VIM-2 assessed as imipenem MIC at 32 mg/L by CLSI protocol based broth microdilution assay; assay type: functional
Pseudomonas aeruginosa [33] = assay: Potentiation of imipenem-induced antibacterial activity against Pseudomonas aeruginosa T2283 expressing VIM-2 assessed as fold change in imipenem MIC at 32 mg/L by CLSI protocol based broth microdilution assay; assay type: functional

inhibition (Bacteria [1]): 98%
MIC (Enterobacter cloacae [3]): 0.0005 µg/mL
MIC (Klebsiella pneumoniae [4]): 0.0005 µg/mL
MIC (Enterobacter cloacae [5]): 0.0005 µg/mL
inhibition (Bacteria [7]): 100%
MIC (Pseudomonas aeruginosa [8]): 0.032 µg/mL
inhibition [9]: 68%
inhibition (Bacteria [11]): 93%
MIC (Pseudomonas aeruginosa [12]): 0.008 µg/mL
MIC (Klebsiella pneumoniae [15]): 0.25 µg/mL
MIC (Escherichia coli [17]): 0.001 µg/mL
MIC (Klebsiella pneumoniae [18]): 0.25 µg/mL
MIC (Escherichia coli [20]): > 0.067 µg/mL
MIC (Enterobacter cloacae [22]): 0.001 µg/mL
MIC (Escherichia coli [23]): 1 µg/mL
MIC (Serratia marcescens): 0.25 µg/mL
MIC (Klebsiella pneumoniae [28]): > 0.066 µg/mL
MIC (Escherichia coli [30]): 0.06 µg/mL
MIC (Pseudomonas aeruginosa [32]): 0.001 µg/mL
Compound: N#CCN(Cc1ccccc1)Cc1cc([N+](=O)[O-])c2cccnc2c1O
fold change (FC) (Enterobacter cloacae [2]): 8
Activity (Escherichia coli [6]): >99.9%
fold change (FC) (Escherichia coli [10]): 64
Activity (Escherichia coli [13]): inactive
inhibition (Escherichia coli [14]): Active
fold change (FC) (Escherichia coli [16]): 1
fold change (FC) (Escherichia coli [19]): 8
fold change (FC) (Klebsiella pneumoniae [21]): 2
fold change (FC) (Citrobacter freundii): 8
Activity (Klebsiella pneumoniae [24]): inactive
fractional inhibitory concentration index (FICI) (Klebsiella pneumoniae [25]): 0.265
fold change (FC) (Pseudomonas aeruginosa [26]): 32
fractional inhibitory concentration index (FICI) (Escherichia coli [27]): 0.265
fold change (FC) (Escherichia coli [29]): 256
fractional inhibitory concentration index (FICI) (Escherichia coli [31]): 0.265
fold change (FC) (Pseudomonas aeruginosa [33]): 32
